Source: the supplement of paper PMC11061612

What was measured:
Assay in all cases: combination Emax (second highest fraction inhibited in the dose matrix, 72 h); higher = more inhibition; extreme values may be limits of the assay
[1] = test system: TC-71 (Ewing's Sarcoma)
Procedure, shortened: (§1)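 Cell lines grown in DMEM/F12 or RPMI with 10% FBS were plated in 1536-well plates and held 24 hours at 37°C, 5% CO2 before 72 hours of exposure to two-drug dose matrices, with DMSO typically at 0.2%. CellTiter-Glo 2.0 luminescence gave viability, which was converted to inhibition. Vehicle wells were set to 0 and blank wells to 1. Combination Emax is the second-highest inhibition in the matrix, and Bliss excess is the observed combination effect minus the expected EA + EB − EA·EB, where EA and EB are the single-agent effects.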

[2] = test system: TE-6 (Esophageal Squamous Cell Carcinoma)
Procedure, shortened: as §1

[3] = test system: U251 (Low Grade Glioma)
Procedure, shortened: as §1

[4] = test system: P12-ICHIKAWA (T-Lymphoblastic Leukemia)
Procedure, shortened: as §1

[5] = test system: MEL-JUSO (Melanoma)
Procedure, shortened: as §1

[6] = test system: MKN28 (Gastric Carcinoma)
Procedure, shortened: as §1

[7] = test system: KYSE-180 (Esophageal Squamous Cell Carcinoma)
Procedure, shortened: as §1

[8] = test system: GR-ST (B-Lymphoblastic Leukemia)
Procedure, shortened: as §1

[9] = test system: ES1 (Ewing's Sarcoma)
Procedure, shortened: as §1

[10] = test system: SW837 (Colorectal Carcinoma)
Procedure, shortened: as §1

[11] = test system: ES8 (Ewing's Sarcoma)
Procedure, shortened: as §1

[12] = test system: NCI-H2818 (Mesothelioma)
Procedure, shortened: as §1

[13] = test system: K-562 (Chronic Myelogenous Leukemia)
Procedure, shortened: as §1

[14] = test system: WIL2-NS (Non-Cancerous)
Procedure, shortened: as §1

[15] = test system: LN-18 (Glioblastoma)
Procedure, shortened: as §1

[16] = test system: DiFi (Colorectal Carcinoma)
Procedure, shortened: as §1

[17] = test system: WM-115 (Melanoma)
Procedure, shortened: as §1

[18] = test system: EVSA-T (Breast Carcinoma)
Procedure, shortened: as §1

[19] = test system: HDQ-P1 (Breast Carcinoma)
Procedure, shortened: as §1

Row | SMILES | combination Emax [1] | combination Emax [2] | combination Emax [3] | combination Emax [4] | combination Emax [5] | combination Emax [6] | combination Emax [7] | combination Emax [8] | combination Emax [9] | combination Emax [10] | combination Emax [11] | combination Emax [12] | combination Emax [13] | combination Emax [14] | combination Emax [15] | combination Emax [16] | combination Emax [17] | combination Emax [18] | combination Emax [19]
1 | COc1nnc2ccc(N3CCC(c4ccc(OCCN5CCN(C)C(=O)[C@H]5C)cc4)CC3)nn12 [AZD5153] + Cn1cnc2c(F)c(Nc3ccc(Br)cc3Cl)c(C(=O)NOCCO)cc21 [Selumetinib] (first compound max 1 µM, 7x7, partner max 10 µM) | 0.762 | 0.711 | 0.592 | 0.99 | 0.59 | 0.416 | 0.401 | 0.782 | 0.458 | 0.753 | 0.681 | 0.27 | 0.469 | 0.881 | 0.721 | 0.962 | 0.832 | 0.942 | 0.431
2 | NC1(C(=O)N[C@@H](CCO)c2ccc(Cl)cc2)CCN(c2ncnc3[nH]ccc23)CC1 [Capivasertib] + CC(=O)c1c(C)c2cnc(Nc3ccc(N4CCNCC4)cn3)nc2n(C2CCCC2)c1=O [Palbociclib] (first compound max 10 µM, 7x7, partner max 10 µM) | 0.511 | 0.723 | 0.441 | 0.739 | 0.518 | 0.155 | 0.572 | 0.75 | 0.765 | 0.151 | 0.64 | 0.316 | 0.257 | 0.849 | 0.731 | 0.619 | 0.574 | 0.942 | 0.302
3 | NC1(C(=O)N[C@@H](CCO)c2ccc(Cl)cc2)CCN(c2ncnc3[nH]ccc23)CC1 [Capivasertib] + CC(C)n1c(=O)n(C)c2cnc3cc(F)c(-c4ccc(OCCCN5CCCCC5)nc4)cc3c21 [AZD1390] (first compound max 10 µM, 7x7, partner max 0.3 µM) | 0.263 | 0.599 | 0.284 | 0.489 | 0.164 | 0.145 | 0.488 | 0.611 | 0.452 | 0.25 | 0.545 | 0.224 | 0.33 | 0.682 | 0.432 | 0.592 | 0.565 | 0.975 | 0.215
4 | NC1(C(=O)N[C@@H](CCO)c2ccc(Cl)cc2)CCN(c2ncnc3[nH]ccc23)CC1 [Capivasertib] + CCN(CCO)CCCOc1ccc2c(Nc3cc(CC(=O)Nc4cccc(F)c4)[nH]n3)ncnc2c1 [AZD2811] (first compound max 10 µM, 7x7, partner max 1 µM) | 0.854 | 0.673 | 0.444 | 1 | 0.274 | 0.206 | 0.51 | 0.702 | 0.905 | 0.261 | 1 | 0.294 | 0.245 | 0.641 | 0.597 | 0.658 | 0.583 | 0.979 | 0.321
5 | NC1(C(=O)N[C@@H](CCO)c2ccc(Cl)cc2)CCN(c2ncnc3[nH]ccc23)CC1 [Capivasertib] + COc1nnc2ccc(N3CCC(c4ccc(OCCN5CCN(C)C(=O)[C@H]5C)cc4)CC3)nn12 [AZD5153] (first compound max 10 µM, 7x7, partner max 1 µM) | 0.797 | 0.754 | 0.578 | 0.994 | 0.36 | 0.488 | 0.616 | 0.832 | 0.694 | 0.538 | 0.798 | 0.238 | 0.528 | 0.848 | 0.779 | 0.718 | 0.778 | 1 | 0.416
6 | NC1(C(=O)N[C@@H](CCO)c2ccc(Cl)cc2)CCN(c2ncnc3[nH]ccc23)CC1 [Capivasertib] + C[C@@H]1COCCN1C2=NC(=NC(=C2)C3(CC3)[S@](=N)(=O)C)C4=C5C=CNC5=NC=C4 [AZD6738] (first compound max 10 µM, 7x7, partner max 10 µM) | 0.959 | 0.754 | 0.444 | 1 | 0.524 | 0.296 | 0.554 | 0.809 | 0.972 | 0.385 | 0.961 | 0.437 | 0.866 | 0.919 | 0.846 | 0.779 | 0.628 | 0.959 | 0.422
7 | CC(=O)c1c(C)c2cnc(Nc3ccc(N4CCNCC4)cn3)nc2n(C2CCCC2)c1=O [Palbociclib] + CN(CC[C@H](CSC1=CC=CC=C1)NC2=C(C=C(C=C2)S(=O)(=O)NC(=O)C3=CC=C(C=C3)N4CCC(CC4)[C@H](C5=CC=CC=C5C6=CC=C(C=C6)Cl)O)S(=O)(=O)C(F)(F)F)CCO [AZD4320] (first compound max 10 µM, 7x7, partner max 1 µM) | 0.828 | 0.363 | 0.294 | 1 | 0.356 | – | 0.462 | – | – | – | – | – | – | – | 0.517 | 0.812 | – | 0.444 | 0.677
